Measurements as given in patent publication US12370143B2, “Compound or salt thereof and lipid particles” (FUJIFILM Corporation, priority 2018, dated 2025).

Tests used:
[1] = Particle size of nucleic acid lipid particles (Luc2-siRNA); assay type: physicochemical; conditions: compound/DSPC/cholesterol/DMG-PEG2000 50/10/38.5/1.5
How it was run: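 Lipid particles formed from oil phase (test lipid/DSPC/cholesterol/DMG-PEG2000, 50/10/38.5/1.5 molar, 20 mmol/L total in ethanol) micromixed 1:3 with Luc2-siRNA in pH 4 acetate buffer (19.7 μmol/L); siRNA/lipid 339 mol/mol, PBS-diluted and dialyzed. Size measured on ELS-Z2 dynamic light scattering.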

[2] = Encapsulation rate of siRNA in nucleic acid lipid particles (Luc2-siRNA); assay type: physicochemical; conditions: compound/DSPC/cholesterol/DMG-PEG2000 50/10/38.5/1.5
How it was run: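 Encapsulation rate was calculated as (total − outer-phase siRNA)/total ×100. Total siRNA was quantified spectrophotometrically after lipid-dissolving ethanol precipitation, and unencapsulated siRNA by RiboGreen in TE (ex 485/em 535 nm). The particles were test lipid/DSPC/cholesterol/DMG-PEG2000 at 50/10/38.5/1.5, formed by microfluidic mixing with Luc2-siRNA at pH 4 and dialyzed against PBS.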

[3] = system: Factor VII (FVII) protein; assay: Measurement of Factor VII (FVII) protein in mouse plasma after FVII-siRNA lipid particles; assay type: in vivo, C57BL6/J mice; conditions: 0.1 mg/kg caudal vein, plasma 24 hours after administration, PBS group = 100%
Method: (§1) The Factor VII (FVII) protein was measured according to the method described in Nature Biotechnology (2010) 28, 172-176. C57BL6/J mice were randomly grouped (n=3). A dispersion liquid of nucleic acid lipid particles was prepared by the same method as that in <Preparation of nucleic acid lipid particles>, except that FVII-siRNA having the sequence described in Molecular Therapy (2009) 17, p. 878 was used instead of Luc-siRNA. The dispersion liquid was administered to the caudal vein of the mice at a dosage of 0.1 mg/kg. For comparison, PBS at the same volume was administered to the caudal vein of the mice. Twenty four hours after the administration, blood was collected from the caudal vena cava, thereby obtaining plasma. The amount of FVII protein was quantified using the obtained plasma and a Biophen FVII assay kit (Aniara).
The FVII amount in the plasma sample of each individual in the PBS administration group was regarded as 100%, and the ratio of the FVII amount in the plasma sample of each individual to 100% was adopted as a measurement value.

[4] = Particle size of nucleic acid lipid particles (FVII-siRNA); assay type: physicochemical
Method: The compounds described in Table 2, L-α-distearoylphosphatidylcholine (trade name: COATSOME® MC-8080; NOF corporation), cholesterol (trade name: Choesterol HP; NIPPON FINE CHEMICAL CO., LTD.), and 1,2-dimyristoyl-rac-glycero-3-(methylpolyoxyethylene 2000) (hereinafter, called DMG-PEG2000) (trade name: SUNBRIGHT® GM-020; NOF corporation) were dissolved in ethanol at a molar ratio of 50/10/38.5/1.5 such that the total lipid concentration became 20 mmol/L, thereby obtaining an oil phase.
An aqueous nucleic acid solution obtained by dissolving 5 mg of Luc2-siRNA having the sequence described in Biomacromolecules (2013) 14, p. 3905 in 1 mL of sterile water was diluted with 10 mmol/L acetate buffer having a pH 4 such that the nucleic acid concentration became 19.7 μmol/L, thereby obtaining a water phase. Then, the water phase and the oil phase were mixed together by a micromixer (see JP5288254B) using a syringe pump such that the volume ratio of water phase:oil phase became 3:1 (final ratio of siRNA/lipid=339 (mol/mol)), and the mixed solution was diluted 2× with PBS, thereby obtaining a dispersion liquid of nucleic acid lipid particles. The dispersion liquid was dialyzed (Slide-A-Lyzer G2, MWCO: 10 kD, Thermo Fisher Scientific) using a phosphate buffered saline such that ethanol was removed, thereby obtaining nucleic acid lipid particles.
The particle size of the nucleic acid lipid particles was measured by the same method as that in <Preparation of lipid particles>.
as §1

[5] = Nucleic acid encapsulation rate of nucleic acid lipid particles (FVII-siRNA); assay type: physicochemical
Method: A 3 mol/L aqueous sodium acetate solution (30 μL) and 9 μL of glycogen were added to 60 μL of the lipid particles retaining nucleic acids, and then 1.5 mL of ethanol was added thereto such that only the nucleic acids were precipitated while the lipid was dissolved. Then, the supernatant was removed by centrifugation. After the precipitates were air-dried for 15 minutes or longer, water was added thereto such that the precipitates were redissolved, and the concentration thereof was measured using Nanodrop NF1000 (Thermo Fisher Scientific), thereby quantifying the total nucleic acid concentration.
The nucleic acid concentration was quantified using a Quant-iT RiboGreen RNA Assay Kit (Thermo Fisher Scientific) according to the protocol. First, a 20×TE buffer included in the above kit was diluted with water, thereby obtaining a 1×TE buffer. TE represents Tris/EDTA (ethylenediaminetetraacetic acid). In order to quantify only the nucleic acid in the outer water phase, the dispersion liquid of lipid particles retaining nucleic acids was diluted 10,000× with the 1×TE buffer.
The 10,000× diluted dispersion liquid of lipid particles (100 μL) was put in a 96-well plate, then 100 μL of a RiboGreen reagent (reagent included in the Quanti-iT Ribogreen RNA Assay Kit described above) diluted 2000× with the 1×TE buffer was added to a sample, and fluorescence (excitation wavelength: 485 nm, fluorescence wavelength: 535 nm) was measured using a plate reader Infinit EF200 (TECAN), thereby quantifying the nucleic acid concentration in the outer water phase.
By using the total nucleic acid concentration obtained through the above steps and the quantified nucleic acid concentration in the outer water phase, the nucleic acid encapsulation rate of the nucleic acid lipid particles was calculated according to the following Equation. Nucleic acid encapsulation rate (%)=(total nucleic acid concentration−nucleic acid concentration in outer water phase)/total nucleic acid concentration×100 The results are shown in Table 2.
as §1

Compound	Particle size (nm) [1]	Nucleic acid encapsulation rate [2]	Relative amount of FVII protein (%) [3]	Particle size (nm) [4]	Nucleic acid encapsulation rate [5]
CCCCC/C=C\C/C=C\CCCCCCCCC(CCCCCCCC/C=C\C/C=C\CCCCC)N(C)CCN(C)C [Comparative Example 9, N1-((6Z,9Z,28Z,31Z)-heptatriaconta-6,9,28,31-tetraen-19-yl)-N1,N2,N2-trimethylethane-1,2-diamine, reference compound]	58.4 nm	84%	44%	60 nm	71%
CCCCC/C=C\C/C=C\CCCCCCCCC(CCCCCCCC/C=C\C/C=C\CCCCC)OC(=O)OCCN(CCCCCC)CCN(C)C [Example 37, 2-((2-(Dimethylamino)ethyl)(hexyl)amino)ethyl((6Z,9Z,28Z,31Z)-heptatriaconta-6,9,28,31-tetraen-19-yl)carbonate]	80.4 nm	85%	17%	74.5 nm	100%
CCCCC/C=C\C/C=C\CCCCCCCCC(CCCCCCCC/C=C\C/C=C\CCCCC)OC(=O)OCCN(CCCC)CCN(C)C [Example 38, 2-(Butyl(2-(dimethylamino)ethyl)amino)ethyl((6Z,9Z,28Z,31Z)-heptatriaconta-6,9,28,31-tetraen-19-yl)carbonate]	94.2 nm	87%	16%	67.9 nm	100%
CCCCC/C=C\C/C=C\CCCCCCCCC(CCCCCCCC/C=C\C/C=C\CCCCC)OC(=O)OCCN(CCN(CC)CC)C(C)C [Example 42, 2-((2-(Diethylamino)ethyl)(isopropyl)amino)ethyl((6Z,9Z,28Z,31Z)-heptatriaconta-6,9,28,31-tetraen-19-yl)carbonate]	70 nm	78%	9%	68.1 nm	70%
CCCCCCC(CCCCCC)C(=O)OCCCCCCC(CCCCCCOC(=O)C(CCCCCC)CCCCCC)OC(=O)OCCN(CC)CCN(CC)CC [Example 77, 7-(((2-((2-(Diethylamino)ethyl)(ethyl)amino)ethoxy)carbonyl)oxy)tridecane-1,13-diylbis(2-hexyloctanoate)]	81.9 nm	88%	3%	81.2 nm	76%
CCCCCCCCC(CCCCCC)COC(=O)CCCC(CCCCCC)OC(=O)OCCN(CCN(CC)CC)C(C)C (stereo not shown) [Example 83, 2-Hexyldecyl 3-ethyl-12-hexyl-6-isopropyl-10-oxo-9,11-dioxa-3,6-diazahexadecan-16-oate]	83.6 nm	82%	13%	85.4 nm	88%
CCCCCCCCCCCC(=O)OCCN(CCOC(=O)OC(CCCCCC)CCCCCCCCC(=O)OCC(CCCC)CCCCCC)CCN(CC)CC (stereo not shown) [Example 86, 2-butyloctyl 6-(2-(dodecanoyloxy)ethyl)-3-ethyl-12-hexyl-10-oxo-9,11-dioxa-3,6-diazahenicosan-21-oate]	67.1 nm	74%	15%	69.2 nm	88%
CCCCCCCCC(CCCCCC)COC(=O)CCCCCCCCC(CCCCCC)OC(=O)OCCN(CCN(CC)CC)C(C)C (stereo not shown) [Example 89, 2-Hexyldecyl 3-ethyl-12-hexyl-6-isopropyl-10-oxo-9,11-dioxa-3,6-diazahenicosan-21-oate]	68.2 nm	83%	8%	77.3 nm	94%
CCCCCCCC/C=C\CCCCCCCC(=O)OCCN(CCOC(=O)OC(CCCCCC)CCCCCCCCC(=O)OCC(CCCC)CCCCCC)CCN(CC)CC (stereo not shown) [Example 91, 2-Butyloctyl 3-ethyl-12-hexyl-6-(2-(oleoyloxy)ethyl)-10-oxo-9,11-dioxa-3,6-diazahenicosan-21-oate]	75.0 nm	69%	9%	66.5 nm	76%
CCCCCCCCCC(=O)OCCN(CCOC(=O)OC(CCCCCC)CCCCCCCCC(=O)OCC(CCCCCC)CCCCCCCC)CCN(CC)CC (stereo not shown) [Example 98, 2-Hexyldecyl 6-(2-(decanoyloxy)ethyl)-3-ethyl-12-hexyl-10-oxo-9,11-dioxa-3,6-diazahenicosan-21-oate]	74.9 nm	82%	2%	68.3 nm	76%
CCCCCCCCC(CCCCCC)COC(=O)CCCCCCCCC(CCCCCC)OC(=O)OCCN(CCOC(=O)CCCCCCC)CCN(CC)CC (stereo not shown) [Example 99, 2-Hexyldecyl 3-ethyl-12-hexyl-6-(2-(octanoyloxy)ethyl)-10-oxo-9,11-dioxa-3,6-diazahenicosan-21-oate]	68.9 nm	81%	3%	72.3 nm	79%
CCCCCCCC(=O)OCCN(CCOC(=O)OC(CCCCCC)CCCC(=O)OCC(CCCC)CCCCCC)CCN(CC)CC (stereo not shown) [Example 108, 2-Butyloctyl 3-ethyl-12-hexyl-6-(2-(octanoyloxy)ethyl)-10-oxo-9,11-dioxa-3,6-diazahexadecan-16-oate]	78.7 nm	81%	3%	78.8 nm	90%
CCCCCCCCC(CCCCCC)COC(=O)CCCCCCCC(CCCCCC)OC(=O)OCCN(CCN(CC)CC)C(C)C (stereo not shown) [Example 117, 2-Hexyldecyl 3-ethyl-12-hexyl-6-isopropyl-10-oxo-9,11-dioxa-3,6-diazaicosan-20-oate]	77.3 nm	90%	12%	85.4 nm	89%
CCCCCCCCCC(CCCCCCCCC)COC(=O)CCCC(CCCCCC)OC(=O)OCCN(CCN(CC)CC)C(C)C (stereo not shown) [Example 124, 2-Nonylundecyl 3-ethyl-12-hexyl-6-isopropyl-10-oxo-9,11-dioxa-3,6-diazahexadecan-16-oate]	68.3 nm	69%	8%	73.4 nm	84%
